Values joined by “and” are separate entries in the source; they are usually repeats but may differ in a detail not shown here. Equal entries are not always repeated.
Conditions: Liquid, Transpiration method

CCOC(=O)C(C)O (racemic) [DL-ethyl lactate]
Conditions	vapor or sublimation pressure
274.6 K	0.0432 kPa
276.6 K	0.0506 kPa
279.6 K	0.0659 kPa
281.4 K	0.0743 kPa
283.6 K	0.0901 kPa
284.6 K	0.095 kPa
285.8 K	0.1032 kPa
287.6 K	0.1266 kPa and 0.1265 kPa
288.4 K	0.1302 kPa
290.2 K	0.1492 kPa
290.3 K	0.1456 kPa
291.1 K	0.162 kPa
293.5 K	0.1923 kPa
296.4 K	0.2396 kPa
298.5 K	0.2828 kPa
301.5 K	0.3655 kPa
302.5 K	0.3751 kPa
304.5 K	0.4491 kPa
305.3 K	0.4793 kPa
307.2 K	0.5251 kPa
308.2 K	0.5766 kPa
310.1 K	0.6332 kPa and 0.6327 kPa
311.3 K	0.6892 kPa

CCCCOC(=O)C(C)O (stereo not given) [butyl 2-hydroxypropanoate]
Conditions	vapor or sublimation pressure [kPa]
273.6 K	0.00576
274.1 K	0.00627
276.6 K	0.00823
277.2 K	0.00868
279.2 K	0.00996
280.7 K	0.0112
281.8 K	0.0133
283.2 K	0.0141
285.4 K	0.0178
287.3 K	0.0215
290.3 K	0.0272
291.8 K	0.0324
293.3 K	0.0375
296.2 K	0.0442
299.2 K	0.0601
302.2 K	0.0712
305.1 K	0.0952
308.1 K	0.1148
308.5 K	0.1253
311 K	0.1483
313 K	0.1639
314.5 K	0.1944
317 K	0.2271
318.9 K	0.2521
322.9 K	0.3526

CCOC(=O)[C@@H](C)O [ethyl D-lactate]
Conditions	vapor or sublimation pressure
274.4 K	0.0419 kPa
276.4 K	0.0495 kPa
278.2 K	0.0568 kPa
280.3 K	0.0665 kPa
282.3 K	0.0765 kPa
283.2 K	0.0834 kPa
285.4 K	0.0995 kPa
286.2 K	0.1081 kPa
289.2 K	0.1358 kPa
291.3 K	0.1583 kPa
293.2 K	0.1868 kPa
295.2 K	0.2114 kPa
297.3 K	0.2551 kPa
298.4 K	0.2762 kPa and 0.2718 kPa
299.2 K	0.2886 kPa
301.3 K	0.3466 kPa
303.2 K	0.3937 kPa
305.2 K	0.4603 kPa
306.2 K	0.479 kPa
307.3 K	0.5225 kPa
308.2 K	0.5581 kPa
308.3 K	0.5768 kPa
310.3 K	0.6462 kPa
311.3 K	0.7011 kPa
313.2 K	0.7624 kPa
314.2 K	0.8127 kPa
316.3 K	0.9517 kPa
318.2 K	1.048 kPa

CC(C)OC(=O)[C@H](C)O [isopropyl (S)-2-hydroxypropionate]
Conditions	vapor or sublimation pressure [kPa]
283.4 K	0.0862
288.3 K	0.1239
293.3 K	0.1774
298.3 K	0.2401
303.2 K	0.3239
306.8 K	0.4055

CCCCCOC(=O)C(C)O (stereo not given) [pentyl 2-hydroxypropanoate]
Conditions	vapor or sublimation pressure [kPa]
303.4 K	0.026
305.3 K	0.0299
307.3 K	0.038
309.3 K	0.0421
311.4 K	0.0517
313.3 K	0.0565
315.4 K	0.0714
317.4 K	0.0833
319.4 K	0.0946
321.4 K	0.1069
323.4 K	0.1269
325.4 K	0.1418
327.4 K	0.1665
329.4 K	0.1855
331.3 K	0.2174
333.3 K	0.2476
335.3 K	0.2794
337.3 K	0.3145
339.3 K	0.3534
341.3 K	0.4164
343.2 K	0.4684

CCCOC(=O)C(C)O (stereo not given) [propyl 2-hydroxypropanoate]
Conditions	vapor or sublimation pressure
273.5 K	0.0152 kPa
274.6 K	0.0171 kPa
276.2 K	0.019 kPa
277.7 K	0.0222 kPa
279.9 K	0.0274 kPa
282.1 K	0.0332 kPa
283.3 K	0.0359 kPa
286.2 K	0.0489 kPa and 0.048 kPa
287.8 K	0.055 kPa
290.3 K	0.0664 kPa
292.3 K	0.0793 kPa
294.3 K	0.09 kPa
298.2 K	0.1194 kPa
299.2 K	0.1376 kPa and 0.1392 kPa
301.2 K	0.1565 kPa
301.4 K	0.1625 kPa
303.3 K	0.1866 kPa
304.2 K	0.1915 kPa
305.3 K	0.2068 kPa
307.9 K	0.268 kPa
308.1 K	0.256 kPa
310.3 K	0.3053 kPa
312.1 K	0.3377 kPa
313.4 K	0.3713 kPa
313.6 K	0.3614 kPa
315.4 K	0.4264 kPa
316 K	0.4342 kPa
317 K	0.4541 kPa
317.4 K	0.4789 kPa
319.4 K	0.5467 kPa
320 K	0.5661 kPa
321.4 K	0.6113 kPa
323 K	0.6633 kPa
323.4 K	0.7043 kPa
325.4 K	0.8342 kPa
327.3 K	0.9235 kPa
330.3 K	1.079 kPa
